Key:
[1] = biological target: rCYP2C8 (Homo sapiens, UniProt P10632); assay: Compound 1 loss on incubation with rCYP enzymes; type: in vitro ADME; details: 120 minutes of incubation
[2] = biological target: T1, OAT1 (Homo sapiens, UniProt Q4U2R8); assay: Transporter inhibition, HEK293 cells; type: in vitro ADME
T1 construct: expressed in transfected cells; host or cells: HEK293
T1 sequence (Q4U2R8 1-563): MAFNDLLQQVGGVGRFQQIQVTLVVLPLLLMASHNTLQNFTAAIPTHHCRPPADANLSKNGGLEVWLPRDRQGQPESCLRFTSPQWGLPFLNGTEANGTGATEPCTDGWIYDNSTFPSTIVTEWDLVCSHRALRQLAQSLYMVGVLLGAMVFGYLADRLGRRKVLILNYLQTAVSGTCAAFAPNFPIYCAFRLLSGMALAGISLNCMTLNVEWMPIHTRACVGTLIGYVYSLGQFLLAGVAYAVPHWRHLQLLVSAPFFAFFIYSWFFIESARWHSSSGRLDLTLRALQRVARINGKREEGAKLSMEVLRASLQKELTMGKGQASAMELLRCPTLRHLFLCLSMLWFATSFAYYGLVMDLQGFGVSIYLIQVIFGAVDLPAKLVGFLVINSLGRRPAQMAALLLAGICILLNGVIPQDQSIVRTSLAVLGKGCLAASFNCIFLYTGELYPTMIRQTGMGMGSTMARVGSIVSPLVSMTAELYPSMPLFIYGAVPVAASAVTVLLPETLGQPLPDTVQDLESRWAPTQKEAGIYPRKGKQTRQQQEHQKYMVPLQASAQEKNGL

[3] = biological target: T2, OAT3 (Homo sapiens, UniProt Q8TCC7); assay: Transporter inhibition, HEK293 cells; type: in vitro ADME
T2 construct: expressed in transfected cells; host or cells: HEK293
T2 sequence (Q8TCC7 1-542): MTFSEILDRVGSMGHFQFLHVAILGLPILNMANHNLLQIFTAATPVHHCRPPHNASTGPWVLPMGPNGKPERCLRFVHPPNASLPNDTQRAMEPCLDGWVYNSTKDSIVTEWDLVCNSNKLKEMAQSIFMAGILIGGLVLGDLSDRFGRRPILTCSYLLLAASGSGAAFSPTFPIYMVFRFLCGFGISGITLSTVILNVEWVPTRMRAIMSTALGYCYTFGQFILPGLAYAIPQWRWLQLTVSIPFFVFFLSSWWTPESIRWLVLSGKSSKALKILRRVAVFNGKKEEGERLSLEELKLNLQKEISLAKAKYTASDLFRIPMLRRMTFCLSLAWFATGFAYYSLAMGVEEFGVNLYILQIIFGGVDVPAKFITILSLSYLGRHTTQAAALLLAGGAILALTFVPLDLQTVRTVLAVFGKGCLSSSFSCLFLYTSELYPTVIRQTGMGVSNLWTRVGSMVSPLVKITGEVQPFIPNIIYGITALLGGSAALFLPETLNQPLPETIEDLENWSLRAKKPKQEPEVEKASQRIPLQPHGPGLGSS

[4] = biological target: T3, MATE1 (Homo sapiens, UniProt Q96FL8); assay: Transporter inhibition, HEK293 cells; type: in vitro ADME
T3 construct: expressed in transfected cells; host or cells: HEK293

[5] = biological target: T4, MATE2-K (Homo sapiens, UniProt Q86VL8); assay: Transporter inhibition, HEK293 cells; type: in vitro ADME
T4 construct: expressed in transfected cells; host or cells: HEK293

[6] = biological target: T5, OATP1B3 (Homo sapiens, UniProt Q9NPD5); assay: Transporter substrate evaluation, HEK293 cells; type: in vitro ADME; details: 1 and 10 μM
T5 construct: expressed in transfected cells; host or cells: HEK293
T5 sequence (Q9NPD5 1-702): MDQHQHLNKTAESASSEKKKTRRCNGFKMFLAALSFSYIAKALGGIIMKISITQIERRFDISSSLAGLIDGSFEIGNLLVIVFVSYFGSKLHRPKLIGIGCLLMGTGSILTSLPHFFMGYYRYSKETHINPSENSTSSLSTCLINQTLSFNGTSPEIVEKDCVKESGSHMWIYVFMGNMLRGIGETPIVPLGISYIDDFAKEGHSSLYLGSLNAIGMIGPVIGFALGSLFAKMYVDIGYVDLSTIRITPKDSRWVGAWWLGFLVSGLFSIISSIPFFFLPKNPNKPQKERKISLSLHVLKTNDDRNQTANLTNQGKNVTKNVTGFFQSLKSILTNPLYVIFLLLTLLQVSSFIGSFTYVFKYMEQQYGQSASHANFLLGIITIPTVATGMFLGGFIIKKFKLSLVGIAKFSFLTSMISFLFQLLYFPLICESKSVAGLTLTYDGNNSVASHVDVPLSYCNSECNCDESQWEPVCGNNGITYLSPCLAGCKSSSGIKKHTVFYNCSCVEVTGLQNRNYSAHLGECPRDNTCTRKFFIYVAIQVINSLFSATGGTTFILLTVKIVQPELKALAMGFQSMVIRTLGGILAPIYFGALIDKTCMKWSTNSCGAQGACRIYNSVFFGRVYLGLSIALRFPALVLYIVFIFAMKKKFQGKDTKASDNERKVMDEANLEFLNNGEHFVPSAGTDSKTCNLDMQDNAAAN

[7] = biological target: T2, OAT3; assay: Transporter substrate evaluation, HEK293 cells; type: in vitro ADME; details: 1 and 10 μM
[8] = biological target: T6, P-gp (Homo sapiens, UniProt P08183); assay: Transporter inhibition, Caco-2 cells
[9] = biological target: T6, P-gp; assay: Transporter substrate evaluation, MDCKII-P-gp cells; type: in vitro ADME; set-up: expressed in transfected cells; host or cells: MDCKII (Madin-Darby canine kidney) cells
[10] = HEK293 cells, [14C]-metformin (10 μM), 1 and 10 μM tested

T6 sequence (P08183 whole entry): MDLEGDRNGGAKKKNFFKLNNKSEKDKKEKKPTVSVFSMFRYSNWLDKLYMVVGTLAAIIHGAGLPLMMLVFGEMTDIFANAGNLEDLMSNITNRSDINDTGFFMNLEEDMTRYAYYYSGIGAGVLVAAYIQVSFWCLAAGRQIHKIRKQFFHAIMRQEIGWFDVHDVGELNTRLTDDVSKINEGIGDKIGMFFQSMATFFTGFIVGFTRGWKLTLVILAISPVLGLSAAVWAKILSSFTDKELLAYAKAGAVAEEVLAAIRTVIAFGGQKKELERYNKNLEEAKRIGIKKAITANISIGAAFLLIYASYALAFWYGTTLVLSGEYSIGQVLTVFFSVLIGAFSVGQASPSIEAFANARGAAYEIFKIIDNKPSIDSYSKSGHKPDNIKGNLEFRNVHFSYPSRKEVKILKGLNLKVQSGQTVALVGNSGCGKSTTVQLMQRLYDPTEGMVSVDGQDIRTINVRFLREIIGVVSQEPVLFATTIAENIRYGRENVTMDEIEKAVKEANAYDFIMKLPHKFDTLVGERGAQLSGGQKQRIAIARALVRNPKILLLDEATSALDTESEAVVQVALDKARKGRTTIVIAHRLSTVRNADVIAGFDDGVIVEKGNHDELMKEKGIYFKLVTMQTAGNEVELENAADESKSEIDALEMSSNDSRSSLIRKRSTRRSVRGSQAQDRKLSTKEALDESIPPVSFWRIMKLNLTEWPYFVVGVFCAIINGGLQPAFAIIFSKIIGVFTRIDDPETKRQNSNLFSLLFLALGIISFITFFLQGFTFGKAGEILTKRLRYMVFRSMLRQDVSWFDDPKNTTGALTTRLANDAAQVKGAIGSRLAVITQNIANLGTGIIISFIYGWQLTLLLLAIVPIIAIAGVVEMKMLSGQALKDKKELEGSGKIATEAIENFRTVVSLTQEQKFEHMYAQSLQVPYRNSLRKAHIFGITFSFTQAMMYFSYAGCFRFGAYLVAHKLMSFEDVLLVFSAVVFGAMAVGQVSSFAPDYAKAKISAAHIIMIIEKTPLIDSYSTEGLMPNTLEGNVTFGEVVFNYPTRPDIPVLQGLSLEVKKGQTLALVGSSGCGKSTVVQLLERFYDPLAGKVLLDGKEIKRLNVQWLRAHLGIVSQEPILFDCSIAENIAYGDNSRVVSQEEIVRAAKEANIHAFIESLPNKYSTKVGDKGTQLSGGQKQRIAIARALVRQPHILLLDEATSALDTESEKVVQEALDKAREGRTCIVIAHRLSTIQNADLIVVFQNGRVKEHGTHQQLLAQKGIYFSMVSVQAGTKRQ
T3 sequence (Q96FL8 whole entry): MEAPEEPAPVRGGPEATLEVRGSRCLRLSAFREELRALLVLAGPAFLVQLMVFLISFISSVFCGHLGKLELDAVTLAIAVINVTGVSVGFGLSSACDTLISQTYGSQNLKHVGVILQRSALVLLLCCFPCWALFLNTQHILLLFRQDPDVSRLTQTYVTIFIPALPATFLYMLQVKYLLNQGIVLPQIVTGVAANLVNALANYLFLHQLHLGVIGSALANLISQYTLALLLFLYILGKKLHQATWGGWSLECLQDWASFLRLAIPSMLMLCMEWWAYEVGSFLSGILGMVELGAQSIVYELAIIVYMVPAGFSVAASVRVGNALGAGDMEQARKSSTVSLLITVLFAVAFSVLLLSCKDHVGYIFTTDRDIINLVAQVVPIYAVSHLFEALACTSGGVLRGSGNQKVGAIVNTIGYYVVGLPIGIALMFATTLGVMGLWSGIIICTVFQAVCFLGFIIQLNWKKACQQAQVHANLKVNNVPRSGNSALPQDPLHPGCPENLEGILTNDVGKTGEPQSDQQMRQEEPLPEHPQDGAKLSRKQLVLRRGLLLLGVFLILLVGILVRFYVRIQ
T4 sequence (Q86VL8 1-566 isoform Q86VL8-3): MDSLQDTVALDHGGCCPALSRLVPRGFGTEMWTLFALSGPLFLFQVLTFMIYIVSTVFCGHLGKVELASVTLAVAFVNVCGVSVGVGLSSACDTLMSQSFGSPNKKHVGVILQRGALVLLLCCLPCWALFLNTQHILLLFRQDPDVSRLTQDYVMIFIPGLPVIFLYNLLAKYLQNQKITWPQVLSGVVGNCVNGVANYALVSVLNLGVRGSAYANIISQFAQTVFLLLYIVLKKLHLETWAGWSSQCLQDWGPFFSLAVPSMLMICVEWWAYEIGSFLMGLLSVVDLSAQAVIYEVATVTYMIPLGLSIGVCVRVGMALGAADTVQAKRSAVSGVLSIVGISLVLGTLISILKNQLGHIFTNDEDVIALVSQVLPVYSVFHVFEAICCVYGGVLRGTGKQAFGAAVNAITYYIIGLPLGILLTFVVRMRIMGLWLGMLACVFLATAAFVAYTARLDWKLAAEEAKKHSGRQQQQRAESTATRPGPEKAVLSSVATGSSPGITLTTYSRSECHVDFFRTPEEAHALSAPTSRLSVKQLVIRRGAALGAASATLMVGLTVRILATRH
Chain of rCYP2C8 (P10632 whole entry): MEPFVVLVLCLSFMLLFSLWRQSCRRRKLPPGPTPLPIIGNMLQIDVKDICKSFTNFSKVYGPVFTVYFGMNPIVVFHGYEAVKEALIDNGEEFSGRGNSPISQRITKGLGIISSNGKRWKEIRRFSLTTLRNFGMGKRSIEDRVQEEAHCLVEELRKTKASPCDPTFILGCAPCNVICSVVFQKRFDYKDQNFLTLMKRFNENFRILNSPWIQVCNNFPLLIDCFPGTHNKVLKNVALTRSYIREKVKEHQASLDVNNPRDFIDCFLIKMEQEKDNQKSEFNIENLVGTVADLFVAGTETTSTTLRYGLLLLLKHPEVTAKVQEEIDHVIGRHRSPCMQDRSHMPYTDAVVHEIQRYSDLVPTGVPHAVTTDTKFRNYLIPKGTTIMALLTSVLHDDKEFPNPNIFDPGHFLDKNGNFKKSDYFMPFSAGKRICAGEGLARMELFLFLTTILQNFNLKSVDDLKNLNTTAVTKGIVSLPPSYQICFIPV

O=C(O)C[C@H]1CCc2c1[nH]c1ccc(OCc3ccc(C4CCCC4)c(C(F)(F)F)c3)cc21 [Compound 1, (R)-2-(7-(4-cyclopentyl-3-(trifluoromethyl)benzyloxy)-1,2,3,4-tetrahydrocyclopenta[b]indol-3-yl)acetic acid]
Compound 1 loss with rCYP2C8 [1]: up to 75% | Reduction of uptake rate of p-aminohippurate into OAT1-expressing cells (inhibition) ([2]; 1 and 10 μM): less than 50% | IC50 ([2]; HEK293 cells, [3H]-p-aminohippurate (1 μM), 1 and 10 μM tested): > 10 µM | Reduction of uptake rate of estrone-3-sulfate into OAT3-expressing cells (inhibition) ([3]; 1 and 10 μM): less than 50% | IC50 ([3]; HEK293 cells, [3H]-estrone-3-sulfate (50 nM), 1 and 10 μM tested): > 10 µM | IC50 [4, 10]: > 10 µM | Inhibition of MATE1 ([4]; up to 10 μM): less than 50% | IC50 [5, 10]: > 10 µM | Inhibition of MATE2-K ([5]; up to 10 μM): less than 50% | Potential substrate of OATP1B3 ([6]; HEK293 cells): not a substrate of OATP1B3 and not a substrate and No | Uptake ratio into OATP1B3-expressing cells ([6]; absence and presence of rifampin): less than two | Potential substrate of OAT3 ([7]; HEK293 cells): not a substrate of OAT3 and not a substrate and No | Uptake ratio into OAT3-expressing cells ([7]; absence and presence of probenecid (100 μM)): below two | P-gp inhibition ([8]; 10 μM Compound 1): no P-gp inhibition | Reduction of efflux ratio of digoxin (10 μM) across Caco-2 cells ([8]; 100 μM Compound 1): 50% | efflux ratio at 1 μM ([9]; MDCK-MDR1, 1 μM): 1.12 | efflux ratio at 10 μM ([9]; MDCK-MDR1, 10 μM): 3.17 | recovery ([9]; MDCK-MDR1, MDCKII-P-gp assay): 18 to 60%
